Structures are written as SMILES. Activity calls are given as the source filed them.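 The calls were made as follows: active = tumour findings in long-term animal cancer tests in more than one sex, species or organ; inactive = no tumour finding and more than one negative test.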

The data set is described as follows: DSSTox (CPDBAS) Carcinogenic Potency Database Summary MultiCellCall Results. The note with it: animal carcinogenicity bioassays, multi-cell call summary. In outline: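 ActivityScore sums 50 for multispecies, 30 for multisex and 20 for multisite positivity. Based on the most positive experiment per sex-species across standardised chronic rodent and other animal cancer tests.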
On to `CCOC(=O)C(C)(C)Oc1ccc(Cl)cc1`, for which the outcome was “active; multisite active”. In the case of `Clc1ccc(-c2cccc(Cl)c2Cl)c(Cl)c1` it was “active; multisite active; multisex active”; in that of `COC(C)(C)C`, “active; multisite active; multisex active; multispecies active”. As for `O=NN(c1ccccc1)c1ccccc1`, the outcome is “active; multisex active”.

As to `O.O.O.O.O.O.O.O=S(=O)([O-])[O-].[Co+2]`, the outcome is “active; multisite active; multisex active; multispecies active”.

Consider `C=CCNN`, for which the outcome is “active; multisite active; multisex active”. For `NNC(N)=S` the value was “inactive; multisex inactive; multispecies inactive”; for `CO[C@@]12[C@H](COC(N)=O)C3=C(C(=O)C(C)=C(N)C3=O)N1C[C@@H]1N[C@@H]12`, “active; multisex active”; for `CN(N=O)c1ccccc1`, “active; multisex active”. In the case of `COC(C(=O)O)c1ccccc1` (stereo not given) it was “inactive; multisex inactive”. In the case of `N[C@@H](CS)C(=O)O` it was “inactive; multisex inactive”; in that of `S=C1NCCN1`, “active; multisite active; multisex active; multispecies active”; in that of `Clc1ccc(C(c2ccc(Cl)cc2)C(Cl)Cl)cc1`, “active; multisite active; multisex active”. For `C=CCc1ccc2c(c1)OCO2`, the outcome was “active; multisex active; multispecies active”. For `O=NN1C[C@H](O)C[C@H]1C(=O)O`, the outcome was “inactive; multisex inactive”. For `C1CO1` the value was “active; multisite active; multisex active; multispecies active”; for `O=[N+]([O-])c1ccc2ncccc2c1`, “inactive; multisex inactive”. `O=NN1CCSCC1`: the outcome was “active; multisite active; multisex active”. In the case of `O=S(=O)(Oc1ccc(Cl)cc1Cl)c1ccccc1` it was “inactive; multisex inactive”. In the case of `CCn1c2ccccc2c2cc(N)ccc21` it was “active; multisite active; multisex active; multispecies active”; in that of `NC(=O)Cc1cccc2ccccc12`, “inactive; multisex inactive”. In the case of `O.[Cd+2].[Cl-].[Cl-]` it was “inactive; multisex inactive”; in that of `CN(C)CCOC(C)(c1ccccc1)c1ccccn1` (stereo not given), “active; multisite active; multisex active; multispecies active”; in that of `CCOC(=O)N(C)N=O`, “active; multisite active”. Take `CCc1ccc(C(c2ccc(CC)cc2)C(Cl)Cl)cc1`: the outcome is “inactive; multisex inactive; multispecies inactive”.

`S=C=Nc1ccccc1`: the outcome was “inactive; multisex inactive”. In the case of `O=NN1CCCCCC1` it was “active; multisite active; multisex active”; in that of `Cc1ncc([N+](=O)[O-])n1CCO`, “active; multisite active; multisex active; multispecies active”.

Take `O=c1cc(CO)occ1O`: the outcome was “active; multisex active”. In the case of `CCCCCCCCCCN(C)N=O` it was “active; multisite active”; in that of `C=Cc1ccccc1`, “active; multisite active; multisex active; multispecies active”; in that of `CCN(C)N=O`, “active; multisite active”. In the case of `OC[C@@H](O)[C@H]1O[C@@H]2O[C@H](C(Cl)(Cl)Cl)O[C@@H]2[C@H]1O` it was “inactive; multisex inactive”; in that of `O=C1CCCCC1`, “inactive; multisex inactive; multispecies inactive”. In the case of `CCOC(=O)[C@H](CCc1ccccc1)N[C@@H](C)C(=O)N1Cc2ccccc2C[C@H]1C(=O)O` it was “inactive; multisex inactive; multispecies inactive”; in that of `O=NN(CC(F)(F)F)CC(F)(F)F`, “inactive; multisex inactive”; in that of `CCCNC(=O)NS(=O)(=O)c1ccc(Cl)cc1`, “inactive; multisex inactive; multispecies inactive”. In the case of `FC(F)OC(F)(F)C(F)Cl` (stereo not given), the outcome was “inactive; multisex inactive”. For `Nc1ccc(-c2ccc(F)cc2)cc1` the value was “active; multisex active”; for `CC(C)(Oc1ccc(C2CCCc3ccccc32)cc1)C(=O)O` (stereo not given), “active; multisite active; multisex active”; for `NCCCCCCCCCCC(=O)O`, “active; multisite active”. For `Cc1c(N(C)C)c(=O)n(-c2ccccc2)n1C` the value was “inactive; multisex inactive”; for `CC1(C)COC1=O`, “active; multisex active”; for `CC(C)[N+](=O)[O-]`, “inactive; multisex inactive”. Turning to `CCCCC1C(=O)N(c2ccccc2)N(c2ccccc2)C1=O`, the outcome was “active; multisite active; multisex active; multispecies active”. Consider `CC(=O)NCc1nc(-c2ccc([N+](=O)[O-])o2)no1`, for which the outcome was “active; multisite active”. In the case of `c1ccc2[nH]c(-c3cscn3)nc2c1` it was “inactive; multisex inactive; multispecies inactive”; in that of `C=C(C)C(=O)Nc1ccc(Cl)c(Cl)c1`, “inactive; multisex inactive”. For `OB(O)O` the value was “inactive; multisex inactive”. In the case of `ClCc1ccccc1` it was “active; multisex active”; in that of `C/C(=C(\CCOC(=O)c1ccccc1)SC(=O)c1ccccc1)N(C=O)Cc1cnc(C)nc1N`, “inactive; multisex inactive”; in that of `CN(C)CCN(C)N=O`, “active; multisite active; multisex active”.

On to `CCCN=[N+]([O-])CCC`, for which the outcome is “active; multisite active”.

Consider `CN1C(=O)C[C@@H](C(=O)N[C@@H](Cc2cnc[nH]2)C(=O)N2CCC[C@H]2C(N)=O)NC1=O`, for which the outcome is “inactive; multisex inactive; multispecies inactive”. In the case of `O=P1(N(CCCl)CCCl)NCCCO1` (stereo not given) it was “active; multisite active; multisex active; multispecies active”; in that of `O=C1c2ccccc2C(=O)N1SC(Cl)(Cl)Cl`, “active; multisite active; multisex active”; in that of `CC(C)O`, “inactive; multisex inactive; multispecies inactive”. In the case of `CN1C(C(=O)Nc2ccccn2)=C(O)c2sc(Cl)cc2S1(=O)=O` it was “inactive; multisex inactive”; in that of `NC1CCCCC1`, “inactive; multisex inactive; multispecies inactive”; in that of `O=S(O)S(=O)(=O)O`, “inactive; multisex inactive”. Consider `CCN(N=O)C(=O)NCC(C)=O`, for which the outcome is “active; multisite active; multisex active; multispecies active”. Consider `ClC#CCl`, for which the outcome is “active; multisite active; multisex active; multispecies active”. In the case of `F[B-](F)(F)F` it was “inactive; multisex inactive”. As to `Nc1ccc(-c2ccc(N)c(Cl)c2)cc1Cl`, the outcome is “active; multisite active; multisex active; multispecies active”. For `COc1ccc(CCN2CCC(Nc3nc4ccccc4n3Cc3ccc(F)cc3)CC2)cc1` the value was “inactive; multisex inactive; multispecies inactive”; for `COc1ccc2c3c1O[C@H]1[C@@H](O)C=C[C@H]4[C@@H](C2)N(C)CC[C@@]341`, “inactive; multisex inactive; multispecies inactive”; for `Oc1ccc(Cl)cc1Cl`, “inactive; multisex inactive; multispecies inactive”. Consider `C=CN1CCCC1=O`, for which the outcome was “active; multisite active; multisex active”.

With `CC(C)(CO)CCCCCCC(C)(C)CO`, the outcome is “inactive; multisex inactive”.

As for `COc1cc2c(c3c1c(=O)c1ccccc1n3C)C=CC(C)(C)O2`, the outcome was “active; multisite active; multisex active”.

For `C/C=C/C=C/C(=O)O`, the outcome is “inactive; multisex inactive; multispecies inactive”. For `C=CC#N` the value was “active; multisite active; multisex active”; for `N[C@@H](Cc1c[nH]c2ccccc12)C(=O)O`, “inactive; multisex inactive; multispecies inactive”; for `COC(=O)C(c1ccccc1)C1CCCCN1N=O` (stereo not given), “inactive; multisex inactive”. For `O=NN1CC(=O)NC1=O`, the outcome was “active; multisite active; multisex active”. For `O=[N+]([O-])c1ccc2c(c1)Cc1ccccc1-2` the value was “active; multisite active”.

`NNc1nc(-c2ccc([N+](=O)[O-])cc2)cs1`: the outcome was “active; multisite active; multispecies active”. For `OCC1CO1` (stereo not given) the value was “active; multisite active; multisex active; multispecies active”. For `ClCC(Cl)Cl` the value was “active; multisite active; multisex active”; for `Cc1ccc2c(c1[N+](=O)[O-])C(=O)c1ccccc1C2=O`, “active; multisite active; multisex active; multispecies active”. For `CCSCCC(N)C(=O)O` (stereo not given) the value was “active; multisex active; multispecies active”; for `COC(=O)C1=C(C)NC(C)=C(C(=O)OCCc2ccc(N3CCN(C(c4ccccc4)c4ccccc4)CC3)cc2)C1c1cccc([N+](=O)[O-])c1` (stereo not given), “inactive; multisex inactive; multispecies inactive”.

Consider `Nc1ccc(N=Nc2ccc(-c3ccc(N=Nc4c(S(=O)(=O)O)cc5cc(S(=O)(=O)O)c(N=Nc6ccccc6)c(O)c5c4N)cc3)cc2)c(N)c1`, for which the outcome is “active; multisite active; multisex active; multispecies active”. In the case of `CC(=O)Nc1ccc(S(=O)(=O)O)c2cc(S(=O)(=O)O)c(N=Nc3ccc(N=Nc4ccc(S(=O)(=O)O)cc4)c4ccc(S(=O)(=O)O)cc34)c(O)c12` it was “inactive; multisex inactive; multispecies inactive”; in that of `O=S(=O)(O)c1cc(S(=O)(=O)O)c2c(N=Nc3ccccc3)c(O)ccc2c1`, “inactive; multisex inactive; multispecies inactive”. For `CNCc1ccc(CSCCNC(=NCC(O)c2ccc(O)cc2)NS(C)(=O)=O)o1` (stereo not given) the value was “active; multisex active”. For `Cc1ccc(N=C=O)cc1N=C=O` the value was “active; multisite active; multisex active; multispecies active”; for `S=C(SSSSSSC(=S)N1CCCCC1)N1CCCCC1`, “inactive; multisex inactive”. With `Nc1cc([N+](=O)[O-])ccc1C(=O)O`, the outcome is “inactive; multisex inactive; multispecies inactive”. On to `Cc1cc(Cl)ccc1OCC(=O)O`, for which the outcome was “inactive; multisex inactive; multispecies inactive”.
